According to US20240368132A1, “ROCK2 INHIBITORS AND USES THEREOF” (President and Fellows of Harvard College, priority 2021, published 2024):

Tests used:
[1] = target: T1, ROCK1 (Homo sapiens, UniProt Q13464); experiment: ROCK1 kinase assay (Reaction Biology Hot Spot kinase assay); format: biochemical; settings: purified kinase, 33P-ATP (10 μM), P81 filter-binding method
T1 construct: purchased Reaction Biology
Protocol: (§1) ROCK2 and ROCK] kinase assays
(§2) ROCK2 and ROCK1 enzyme potencies were determined by Reaction Biology (www.reactionbiology.com) using their Hot Spot kinase Assay. The base reaction buffer for the assay was 20 mM Hepes (pH 7.5), 10 mM MgCl2, 1 mM EGTA, 0.01% Brij35, 0.02 mg/mL BSA, 0.1 mM Na3VO4, and 2 mM DTT with a 1% DMSO concentration. Required cofactors were added individually to each kinase reaction. The substrate was freshly prepared in the reaction buffer described above, and then cofactors were delivered. The purified kinase was added to the substrate solution and then gently mixed. Compounds were added from 100% DMSO into the kinase reaction mixture by Acoustic technology (Echo550; nanoliter range) and then incubated for 20 min at room temperature. ^33P-ATP (10 μM) was delivered to initiate the reaction, and then the mixture was incubated again for two hours at room temperature. […] Nat. Biotechnol. 2011 Oct. 30; 29(11):1039-45. doi: 10.1038/nbt.2017.
(§3) The compounds were categorized based on IC50 value as “+”, “++”, “+++”, and “++++”. The category “+” refers to compounds with ROCK IC50 value of >10 μM. The category “++” refers to compounds with a ROCK IC50 value of 10 to 3 μM. The category “+++” refers to compounds with ROCK IC50 value of 3 to 0.3 μM. The category “++++” refers to compounds with a ROCK IC50 value of <0.3 μM. “ND” refers to “not determined.” The compound of an “Example Number” is the final product of an Example entitled the Example Number.

[2] = target: T2, ROCK2 (Homo sapiens, UniProt O75116); experiment: ROCK2 kinase assay (Reaction Biology Hot Spot kinase assay); format: biochemical; settings: purified kinase, 33P-ATP (10 μM), P81 filter-binding method
T2 construct: purchased Reaction Biology
T2 sequence (O75116 whole entry): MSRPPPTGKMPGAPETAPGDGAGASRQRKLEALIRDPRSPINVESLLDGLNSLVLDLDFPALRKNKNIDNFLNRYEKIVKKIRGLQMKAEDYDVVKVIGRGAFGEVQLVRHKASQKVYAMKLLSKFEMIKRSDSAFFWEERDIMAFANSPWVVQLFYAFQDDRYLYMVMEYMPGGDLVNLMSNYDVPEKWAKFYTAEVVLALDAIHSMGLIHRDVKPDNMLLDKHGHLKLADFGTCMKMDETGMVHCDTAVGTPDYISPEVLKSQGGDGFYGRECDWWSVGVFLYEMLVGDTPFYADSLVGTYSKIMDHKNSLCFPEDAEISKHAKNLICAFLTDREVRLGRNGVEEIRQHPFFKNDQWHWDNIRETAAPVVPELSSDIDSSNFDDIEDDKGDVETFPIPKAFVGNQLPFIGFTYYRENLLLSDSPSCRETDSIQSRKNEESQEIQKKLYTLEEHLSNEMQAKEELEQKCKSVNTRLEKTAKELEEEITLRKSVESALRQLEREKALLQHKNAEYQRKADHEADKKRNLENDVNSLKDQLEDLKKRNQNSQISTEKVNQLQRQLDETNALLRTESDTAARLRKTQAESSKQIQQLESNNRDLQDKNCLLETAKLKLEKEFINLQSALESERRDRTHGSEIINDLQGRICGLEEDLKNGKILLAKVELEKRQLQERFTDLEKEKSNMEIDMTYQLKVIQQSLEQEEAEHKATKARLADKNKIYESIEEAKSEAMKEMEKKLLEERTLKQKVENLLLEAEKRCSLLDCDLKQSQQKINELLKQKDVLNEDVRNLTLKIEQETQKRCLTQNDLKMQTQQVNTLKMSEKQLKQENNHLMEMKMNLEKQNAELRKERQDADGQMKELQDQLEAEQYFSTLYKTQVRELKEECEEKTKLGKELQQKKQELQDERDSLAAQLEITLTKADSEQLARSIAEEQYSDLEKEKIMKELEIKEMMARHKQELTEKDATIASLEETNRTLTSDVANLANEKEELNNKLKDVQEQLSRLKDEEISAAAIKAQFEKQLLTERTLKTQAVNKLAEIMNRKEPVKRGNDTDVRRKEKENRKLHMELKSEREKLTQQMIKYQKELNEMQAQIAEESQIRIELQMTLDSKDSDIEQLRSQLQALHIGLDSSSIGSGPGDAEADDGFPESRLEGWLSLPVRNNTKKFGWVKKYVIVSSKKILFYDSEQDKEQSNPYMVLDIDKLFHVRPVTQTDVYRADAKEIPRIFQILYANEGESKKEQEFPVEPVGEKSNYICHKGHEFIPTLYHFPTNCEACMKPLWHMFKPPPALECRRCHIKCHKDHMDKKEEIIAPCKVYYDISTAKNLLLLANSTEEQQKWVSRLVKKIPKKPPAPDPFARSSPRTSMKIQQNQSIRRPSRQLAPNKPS
Protocol: as §1, §2, §3

T1 sequence (Q13464 whole entry): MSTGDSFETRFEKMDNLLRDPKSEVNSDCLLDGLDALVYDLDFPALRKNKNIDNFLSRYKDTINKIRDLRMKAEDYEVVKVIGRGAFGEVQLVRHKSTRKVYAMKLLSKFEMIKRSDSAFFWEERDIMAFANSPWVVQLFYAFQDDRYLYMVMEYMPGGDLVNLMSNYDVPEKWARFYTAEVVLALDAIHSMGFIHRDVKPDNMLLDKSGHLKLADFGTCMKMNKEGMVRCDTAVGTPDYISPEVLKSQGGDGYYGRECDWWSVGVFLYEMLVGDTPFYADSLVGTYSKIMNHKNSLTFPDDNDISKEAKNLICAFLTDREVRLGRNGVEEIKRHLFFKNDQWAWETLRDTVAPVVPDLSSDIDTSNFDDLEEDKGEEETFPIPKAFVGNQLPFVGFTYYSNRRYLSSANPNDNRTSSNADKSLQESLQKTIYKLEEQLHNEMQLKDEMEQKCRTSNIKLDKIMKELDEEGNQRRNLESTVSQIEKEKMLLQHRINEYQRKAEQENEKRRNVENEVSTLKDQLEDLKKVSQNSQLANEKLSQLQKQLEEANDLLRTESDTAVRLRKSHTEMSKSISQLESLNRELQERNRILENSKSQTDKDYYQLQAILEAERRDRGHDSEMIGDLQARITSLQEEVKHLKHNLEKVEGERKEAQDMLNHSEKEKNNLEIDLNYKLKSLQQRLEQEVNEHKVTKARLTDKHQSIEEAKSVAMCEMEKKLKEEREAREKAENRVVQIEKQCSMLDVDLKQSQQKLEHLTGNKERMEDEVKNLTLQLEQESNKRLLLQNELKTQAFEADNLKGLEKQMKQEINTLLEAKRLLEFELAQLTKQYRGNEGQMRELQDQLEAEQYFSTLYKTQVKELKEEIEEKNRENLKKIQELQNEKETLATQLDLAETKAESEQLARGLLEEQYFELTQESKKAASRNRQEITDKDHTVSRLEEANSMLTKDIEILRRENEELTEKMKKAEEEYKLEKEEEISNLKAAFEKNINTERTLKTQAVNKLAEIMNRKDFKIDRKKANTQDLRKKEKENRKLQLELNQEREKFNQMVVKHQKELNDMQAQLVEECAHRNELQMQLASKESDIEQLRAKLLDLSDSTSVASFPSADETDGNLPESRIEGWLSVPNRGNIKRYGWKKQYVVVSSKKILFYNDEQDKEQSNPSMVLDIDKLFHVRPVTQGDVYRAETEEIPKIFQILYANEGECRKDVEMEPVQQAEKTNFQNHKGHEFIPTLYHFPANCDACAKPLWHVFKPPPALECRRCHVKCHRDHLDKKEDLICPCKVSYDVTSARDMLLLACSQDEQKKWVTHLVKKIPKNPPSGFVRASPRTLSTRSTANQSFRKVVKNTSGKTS

| IC50 [1] [nM] | IC50 [2] [nM] | ROCK2 IC50 [2] | Compound |
| --- | --- | --- | --- |
| < 300 | < 300 | – | Cc1coc(-c2cc(-c3nnc(Nc4ccc5[nH]ncc5c4Cl)o3)ccn2)n1 [Example 48, N-(4-chloro-1H-indazol-5-yl)-5-(2-(4-methyloxazol-2-yl)pyridin-4-yl)-1,3,4-oxadiazol-2-amine] |
| 300 to 3000 | < 300 | – | Cc1cc(Nc2ccc3[nH]ncc3c2)nn1-c1cccc(NC(=O)c2c[nH]cn2)c1 [Example 5, N-(3-(3-((1H-indazol-5-yl)amino)-5-methyl-1H-pyrazol-1-yl)phenyl)-1H-imidazole-4-carboxamide] |
| < 300 | < 300 | – | O=C(Nc1cccc(-c2nc(Nc3ccc4[nH]ncc4c3)no2)c1)c1cn[nH]c1 [Example 40] |
| 300 to 3000 | < 300 | – | COc1cc(-c2nc(Nc3ccc4[nH]ncc4c3Cl)no2)ccc1OCC(=O)NC(C)C [Example 73, 2-[4-[3-[(4-chloro-1H-indazol-5-yl)amino]-1,2,4-oxadiazol-5-yl]-2-methoxy-phenoxy]-N-isopropyl-acetamide] |
| 300 to 3000 | < 300 | – | Cn1cc(C(=O)Nc2cccc(-n3nc(Nc4ccc5[nH]ncc5c4Cl)c4ncccc43)c2)cn1 [Example 56, N-(3-(3-((4-chloro-1H-indazol-5-yl)amino)-1H-pyrazolo[4,3-b]pyridin-1-yl)phenyl)-1-methyl-1H-pyrazole-4-carboxamide] |
| 300 to 3000 | < 300 | – | COc1cc(-c2nnc(Nc3ccc4[nH]ncc4c3Cl)o2)ccc1OCC(=O)NC(C)C [Example 72, 2-[4-[5-[(4-chloro-1H-indazol-5-yl)amino]-1,3,4-oxadiazol-2-yl]-2-methoxy-phenoxy]-N-isopropyl-acetamide] |
| < 300 | < 300 | – | Cn1cc(C(=O)Nc2cc(-c3nnc(Nc4ccc5[nH]ncc5c4Cl)o3)cn(C)c2=O)cn1 [Example 67, N-[5-[5-[(4-chloro-1H-indazol-5-yl)amino]-1,3,4-oxadiazol-2-yl]-1-methyl-2-oxo-3-pyridyl]-1-methyl-pyrazole-4-carboxamide] |
| > 10000 | 300 to 3000 | – | COc1cc(-n2nc(Nc3ccc4[nH]ncc4c3Cl)cc2C)ccc1OCC(=O)NC(C)C [Example 14] |
| < 300 | < 300 | – | Cc1cn(-c2ccc3c(c2)CCNC3=O)nc1Nc1ccc2[nH]ncc2c1Cl [Example 83, 6-(3-((4-chloro-1H-indazol-5-yl)amino)-4-methyl-1H-pyrazol-1-yl)-3,4-dihydroisoquinolin-1(2H)-one] |
| 300 to 3000 | < 300 | – | O=C(Nc1cccc(-c2cc(Nc3ccc4[nH]ncc4c3)no2)c1)c1cccnc1 [Example 35] |
| > 10000 | > 10000 | – | Cn1cc(C(=O)Nc2ccnc(-n3nc(Nc4ccc5[nH]ncc5c4Cl)c4ccccc43)c2)cn1 [Example 47] |
| < 300 | < 300 | – | Clc1c(Nc2nnc(-c3ccnc(-c4ncco4)c3)o2)ccc2[nH]ncc12 [Example 49] |
| 300 to 3000 | < 300 | – | COc1cc(-n2cc(C)c(Nc3ccc4[nH]ncc4c3Cl)n2)ccc1OCC(=O)NC(C)C [Example 13] |
| < 300 | < 300 | – | COc1cc(-n2cc(C)c(Nc3ccc4[nH]ncc4c3Cl)n2)ccc1C(=O)NC1CCN(C)C1 (centres unmarked) [Example 86] |
| < 300 | < 300 | – | Cn1cc(-n2nc(Nc3ccc4[nH]ncc4c3Cl)c3ccccc32)cc(NC(=O)c2ccccc2F)c1=O [Example 68, N-(5-(3-((4-chloro-1H-indazol-5-yl)amino)-1H-indazol-1-yl)-1-methyl-2-oxo-1,2-dihydropyridin-3-yl)-2-fluorobenzamide] |
| < 300 | < 300 | – | O=C(Nc1cccc(-c2cc(Nc3ccc4[nH]ncc4c3)no2)c1)c1c[nH]cn1 [Example 34, N-(3-(3-((1H-indazol-5-yl)amino)isoxazol-5-yl)phenyl)-1H-imidazole-4-carboxamide] |
| 300 to 3000 | < 300 | – | CC(C)NC(=O)COc1ccc(-n2ccc(Nc3ccc4[nH]ncc4c3Cl)n2)cc1F [Example 75, 2-(4-(3-((4-chloro-1H-indazol-5-yl)amino)-1H-pyrazol-1-yl)-2-fluorophenoxy)—N-isopropylacetamide] |
| 300 to 3000 | < 300 | – | O=C(Nc1cccc(-c2nc(Nc3ccc4[nH]ncc4c3Cl)no2)c1)c1ccccc1F [Example 64] |
| > 10000 | < 300 | – | COc1cc(-n2cc(C)c(Nc3ccc4[nH]ncc4c3Cl)n2)ccc1C(=O)NCC(F)(F)F [Example 88] |
| 300 to 3000 | 300 to 3000 | – | O=C(Nc1cccc(-n2ccc(Nc3ccc4[nH]ncc4c3)n2)c1)c1cccnc1 [Example 6] |

| IC50 [1] [nM] | IC50 [2] [nM] | ROCK2 IC50 [2] | Compound |
| --- | --- | --- | --- |
| > 10000 | > 10000 | – | Cn1cc(-c2nc3cc(-n4nc(Nc5ccc6[nH]ncc6c5Cl)c5ccccc54)ccc3o2)cn1 [Example 66] |
| < 300 | < 300 | – | Cn1cc(C(=O)Nc2cccc(-c3nc(Nc4ccc5[nH]ncc5c4)no3)c2)cn1 [Example 39] |
| < 300 | < 300 | – | Cn1cc(C(=O)Nc2cccc(-c3cc(Nc4ccc5[nH]ncc5c4)no3)c2)cn1 [Example 33] |
| 3000 to 10000 | 300 to 3000 | – | Cn1cc(C(=O)Nc2cccc(-n3ccc(Nc4ccc5[nH]ncc5c4)n3)c2)cn1 [Example 1, N-(3-(3-((1H-indazol-5-yl)amino)-1H-pyrazol-1-yl)phenyl)-1-methyl-1H-pyrazole-4-carboxamide] |
| < 300 | < 300 | – | Cn1cc(C(=O)Nc2cccc(-n3nc(Nc4ccc5[nH]ncc5c4Cl)c4cnccc43)c2)cn1 [Example 58] |
| > 10000 | 300 to 3000 | – | CC(C)NC(=O)COc1ccc(-n2nc(Nc3ccc4[nH]ncc4c3)c3ccccc32)cc1 [Example 16] |
| 300 to 3000 | < 300 | – | Cn1cc(C(=O)Nc2cccc(-n3nc(Nc4ccc5[nH]ncc5c4Cl)c4ccccc43)c2)cn1 [Example 31] |
| < 300 | < 300 | – | COc1cc(-n2cc(C)c(Nc3ccc4[nH]ncc4c3Cl)n2)ccc1C(=O)NC(C)C [Example 85, 4-(3-((4-chloro-1H-indazol-5-yl)amino)-4-methyl-1H-pyrazol-1-yl)-N-isopropyl-2-methoxybenzamide] |
| > 10000 | > 10000 | – | O=C(Nc1cccc(-c2nnc(Nc3ccc4[nH]ncc4c3)o2)c1)c1cn[nH]c1 [Example 37] |
| < 300 | < 300 | – | Cn1cc(C(=O)Nc2cccc(-c3nnc(Nc4ccc5[nH]ncc5c4Cl)o3)c2)cn1 [Example 55, N-(3-(5-((4-chloro-1H-indazol-5-yl)amino)-1,3,4-oxadiazol-2-yl)phenyl)-1-methyl-1H-pyrazole-4-carboxamide] |
| > 10000 | < 300 | – | Cn1cc(C(=O)Nc2cccc(-n3nc(Nc4ccc5[nH]ncc5c4Cl)c4ccncc43)c2)cn1 [Example 59] |
| < 300 | < 300 | – | Cn1cc(C(=O)Nc2cc(-n3nc(Nc4ccc5[nH]ncc5c4Cl)c4ccccc43)ccc2F)cn1 [Example 57, N-(5-(3-((4-chloro-1H-indazol-5-yl)amino)-1H-indazol-1-yl)-2-fluorophenyl)-1-methyl-1H-pyrazole-4-carboxamide] |
| 3000 to 10000 | < 300 | – | Cc1cn(-c2ccc3c(c2)CCN(C(=O)C2CC2)C3)nc1Nc1ccc2[nH]ncc2c1Cl [Example 79, [6-[3-[(4-chloro-1H-indazol-5-yl)amino]-4-methyl-pyrazol-1-yl]-3,4-dihydro-1H-isoquinolin-2-yl]-cyclopropyl-methanone] |
| 300 to 3000 | < 300 | – | Cn1cc(-c2nc3cc(-n4ccc(Nc5ccc6[nH]ncc6c5Cl)n4)ccc3o2)cn1 [Example 65, 4-chloro-N-(1-(2-(1-methyl-1H-pyrazol-4-yl)benzo[d]oxazol-5-yl)-1H-pyrazol-3-yl)-1H-indazol-5-amine] |
| < 300 | < 300 | – | Cn1cc(C(=O)Nc2cccc(-n3nc(Nc4ccc5[nH]ncc5c4Cl)c4ccccc43)n2)cn1 [Example 46] |
| < 300 | < 300 | – | O=C(Nc1cccc(-c2noc(Nc3ccc4[nH]ncc4c3)n2)c1)c1cccnc1 [Example 44] |
| 300 to 3000 | < 300 | – | O=C(Nc1cccc(-c2nc(Nc3ccc4[nH]ncc4c3)no2)c1)c1cccnc1 [Example 41] |
| < 300 | < 300 | – | Cc1cn(-c2cccc(NC(=O)c3cccnc3)c2)nc1Nc1ccc2[nH]ncc2c1 [Example 4, N-(3-(3-((1H-indazol-5-yl)amino)-4-methyl-1H-pyrazol-1-yl)phenyl)nicotinamide] |
| > 10000 | – | + + | Cc1cn(-c2ccc3c(c2)CCN(C(=O)C(C)C)C3)nc1Nc1ccc2[nH]ncc2c1Cl [Example 80, 1-[6-[3-[(4-chloro-1H-indazol-5-yl)amino]-4-methyl-pyrazol-1-yl]-3,4-dihydro-1H-isoquinolin-2-yl]-2-methyl-propan-1-one] |
| > 10000 | 300 to 3000 | – | COc1cc(-n2cc(C)c(Nc3ccc4[nH]ncc4c3Cl)n2)ccc1C(=O)N1CCCC1 [Example 89] |
